22 compounds from patent US11701370B2, “Phosphonium ion channel blockers and methods for use” (Nocion Therapeutics, Inc., priority 2019, dated 2023) can be followed below.

Counter-ions that a name gives are not always drawn. Where only a bound is given, the exact number is not on record here.

Usually Papp stands for the rate of passage across a membrane or cell layer, normalised by area and donor concentration. A word on the inhibition: it is the change of the read-out against control, counted positive when it falls. Read a low inhibition as a response near the control.

Data set [1] in a line: PAMPA membrane permeability assay (artificial lipid membrane, passive diffusion). The format is in vitro ADME. The conditions noted are these: pH 7.4 buffer, GIT lipid, 4 hours incubation. On the procedure: The PAMPA assay (pION, Inc., Woburn Mass.) was used to determine the ability of compounds of the invention to cross an artificial lipid membrane by passive diffusion. Test compounds were dissolved in DMSO (10 mM) and diluted 200-fold in buffer (pION Inc., pH 7.4) to provide 50 uM stock solutions. Buffer (150 μL) was added to a UV blank plate and stock solutions (150 μL) were transferred to a UV reference plate. The blank and reference spectrum were read using a spectrophotometer. Stock solutions (200 μL) were added to the donor plate of the PAMPA sandwich plate and an accept plate painted with GIT lipid (pION Inc, 5 μL) was placed on top. Buffer (200 μL) was added to the acceptor plate and the PAMPA sandwich plate was incubated for 4 hours. Aliquots (150 μL) from the acceptor plate were added to a UV plate and read as acceptor spectrum. Aliquots (150 μL) of the donor solutions were added to a UV analysis plate and read as donor spectrum. The permeability coefficient of test compounds was calculated using PAMPA Explorer™ software (version 3.5.0.4) based on the AUC of the reference plate, the donor plate, and the acceptor plate.
The PAMPA permeability results (10^−6 cm/s) of representative compounds are reported as “+” (<0.1 10^−6 cm/s), “++” (0.1-2.0 10^−6 cm/s), “+++” (2.0-10.010^−6 cm/s) or “++++” (>10.0 10^−6 cm/s).
Background: The PAMPA barrier holds no transporters, so it reflects passive diffusion.

Data set [2] has as its target T1, NaV1.7 (Homo sapiens, UniProt Q15858).
T1 construct: expressed in transfected cells; tetracycline-inducible, kept under hygromycin and blasticidin selection
The data set is described as follows: Internal block: intracellular inhibition of NaV1.7 current, whole cell patch clamp. Type of data set: cell-based. The conditions noted are these: compound in internal solution; for inhibition at 3 µM: 3 μM test concentration; for inhibition at 10 µM: 10 μM test concentration. As to the method: (§1) NaV1.7 was expressed upon induction with tetracycline. Cells were cultured in DMEM containing 10% dialyzed Fetal Bovine Serum (VWR, Radnor, Pa.), 1% Glutamax (VWR, Radnor, Pa.), 1% Penicillin-Streptomycin (VWR, Radnor, Pa.), 100 mg/L Hygromycin (Thermo Fisher Scientific, Waltham, Mass. and 5 mg/L Blasticidin (Alfa Aesar, Haverhill, Mass.). Cells were grown and maintained at 37° C. in a humidified environment containing 10% CO2 in air. Cells were detached from the culture flask for passage and harvested using 0.05% Trypsin-EDTA (Thermo Fisher Scientific, Waltham, Mass.). To induce NaV1.7, cells were induced with tetracycline (0.1-1 μg/mL, IBI Scientific, Peosta, Iowa) the day before recording and plated onto 24-well plates. Cells were washed with DPBS (VWR, Radnor, Pa.), trypsinized and then triturated five times in 10 mL of growth media to break apart cell aggregates. For one 24-well plate, 2 mL of cell suspension was mixed with 23 mL of fresh growth media and 0.1-1 μg/mL tetracycline added. 1 ml of mixed media with cells was then added to each well of a 24-well plate, with a 12 mm coverslip already placed in the bottom of the well. Cells were then incubated in 37° C. and 10% CO2 overnight.
(§2) The intracellular solution contained the following (in mM) CsCl 135, NaCl 10, EGTA 10, HEPES 10, MgCl22, adjusted to pH 7.2 with CsOH. The external solution was a normal Ringer solution containing (in mM) NaCl 155, HEPES 10, glucose 10, KCl 3.5, CaCl2 1.5, MgCl2 1 adjusted to pH 7.4 with NaOH. CsCl is from Alfa Aesar, Haverhill, Mass. All other chemicals are from Sigma-Aldrich, St. Louis, Mo. In order to test the degree of internal block by test compounds the compounds were dissolved in internal solution at the indicated test concentration. […] In order to test the degree of external block by test compounds the compounds were dissolved in external solution at the indicated test concentration.
(§3) 18-24 hours after cells were induced with tetracycline, coverslips were placed into a chamber filled with Normal Ringer solution at room temperature and the chamber placed on a microscope. Pipettes were pulled from borosilicate glass on a P97 puller (Sutter Instrument, Novato, Calif.) and polished with a MF-830 Microforge (Narishige International USA, Inc, Amityville, N.Y.) to have a resistance of 1.5-2.5 MΩ when filled with CsCl internal solution at room temperature. Healthy cells (those that are round and translucent with no visible blemishes) were chosen for seal formation. A seal was formed between the pipette and the cell, and a brief pulse of suction was used to “break in” and establish the whole-cell configuration. The membrane potential was held at −100 mV before the voltage protocol began. Only cells with series resistance between 1.5-5 MΩ were retained for analysis. The voltage protocol was as follows: Cells were held at −100 mV for 12 ms followed by a hyperpolarizing step to −105 mV for 12 ms to monitor the leak. Cells were then stepped back to −100 mV for 40 ms. Cells were then depolarized to −20 mV for 10 ms and then returned to −100 mV for 26 ms (FIG. 1).
(§4) Once the recording was started, the voltage protocol was run at 30 second intervals for 5 minutes to get a stable baseline. This was followed by four 30-second periods of 5 Hz stimulation of the same voltage protocol separated by 1 minute of rest which was then followed by 0.33 Hz stimulation after the last train. Currents were recorded using PatchMaster software with Heka EPC10 (HEKA Electronics, Lambrecht, Germany). Only cells with inward current amplitudes at −20 mV between 400 pA and 4 nA were accepted. In addition, cells having leak currents greater than 10% of their current amplitudes were discarded.
(§5) The data was plotted using the Patchmaster software (HEKA Electronics, Lambrecht, Germany) and analyzed by plotting the minimum current during the voltage step to −20 mV (peak inward current) as a function of time. […]

Data set [3] deals with T1, NaV1.7. Nature of the data set: External block: extracellular inhibition of NaV1.7 current, whole cell patch clamp. Type of data set: cell-based. The conditions noted are these: compound in external solution; for inhibition at 10 µM: 10 μM test concentration; for inhibition at 3 µM: 3 μM test concentration. On the procedure:
as §1, §2, §3
as §4, with “This is” for “This was”, “by” for “by four 30-second periods of”, “protocol run until the end” for “protocol separated by 1 minute”, “of experiment. […] The test compound is added for 5 minutes before washing out with normal Ringer's solution.” for “of rest which was then followed by 0.33 Hz stimulation after the last train.”
as §5
A general note: Patch clamp records ionic current or voltage across a cell membrane.

T1 sequence (Q15858 whole entry): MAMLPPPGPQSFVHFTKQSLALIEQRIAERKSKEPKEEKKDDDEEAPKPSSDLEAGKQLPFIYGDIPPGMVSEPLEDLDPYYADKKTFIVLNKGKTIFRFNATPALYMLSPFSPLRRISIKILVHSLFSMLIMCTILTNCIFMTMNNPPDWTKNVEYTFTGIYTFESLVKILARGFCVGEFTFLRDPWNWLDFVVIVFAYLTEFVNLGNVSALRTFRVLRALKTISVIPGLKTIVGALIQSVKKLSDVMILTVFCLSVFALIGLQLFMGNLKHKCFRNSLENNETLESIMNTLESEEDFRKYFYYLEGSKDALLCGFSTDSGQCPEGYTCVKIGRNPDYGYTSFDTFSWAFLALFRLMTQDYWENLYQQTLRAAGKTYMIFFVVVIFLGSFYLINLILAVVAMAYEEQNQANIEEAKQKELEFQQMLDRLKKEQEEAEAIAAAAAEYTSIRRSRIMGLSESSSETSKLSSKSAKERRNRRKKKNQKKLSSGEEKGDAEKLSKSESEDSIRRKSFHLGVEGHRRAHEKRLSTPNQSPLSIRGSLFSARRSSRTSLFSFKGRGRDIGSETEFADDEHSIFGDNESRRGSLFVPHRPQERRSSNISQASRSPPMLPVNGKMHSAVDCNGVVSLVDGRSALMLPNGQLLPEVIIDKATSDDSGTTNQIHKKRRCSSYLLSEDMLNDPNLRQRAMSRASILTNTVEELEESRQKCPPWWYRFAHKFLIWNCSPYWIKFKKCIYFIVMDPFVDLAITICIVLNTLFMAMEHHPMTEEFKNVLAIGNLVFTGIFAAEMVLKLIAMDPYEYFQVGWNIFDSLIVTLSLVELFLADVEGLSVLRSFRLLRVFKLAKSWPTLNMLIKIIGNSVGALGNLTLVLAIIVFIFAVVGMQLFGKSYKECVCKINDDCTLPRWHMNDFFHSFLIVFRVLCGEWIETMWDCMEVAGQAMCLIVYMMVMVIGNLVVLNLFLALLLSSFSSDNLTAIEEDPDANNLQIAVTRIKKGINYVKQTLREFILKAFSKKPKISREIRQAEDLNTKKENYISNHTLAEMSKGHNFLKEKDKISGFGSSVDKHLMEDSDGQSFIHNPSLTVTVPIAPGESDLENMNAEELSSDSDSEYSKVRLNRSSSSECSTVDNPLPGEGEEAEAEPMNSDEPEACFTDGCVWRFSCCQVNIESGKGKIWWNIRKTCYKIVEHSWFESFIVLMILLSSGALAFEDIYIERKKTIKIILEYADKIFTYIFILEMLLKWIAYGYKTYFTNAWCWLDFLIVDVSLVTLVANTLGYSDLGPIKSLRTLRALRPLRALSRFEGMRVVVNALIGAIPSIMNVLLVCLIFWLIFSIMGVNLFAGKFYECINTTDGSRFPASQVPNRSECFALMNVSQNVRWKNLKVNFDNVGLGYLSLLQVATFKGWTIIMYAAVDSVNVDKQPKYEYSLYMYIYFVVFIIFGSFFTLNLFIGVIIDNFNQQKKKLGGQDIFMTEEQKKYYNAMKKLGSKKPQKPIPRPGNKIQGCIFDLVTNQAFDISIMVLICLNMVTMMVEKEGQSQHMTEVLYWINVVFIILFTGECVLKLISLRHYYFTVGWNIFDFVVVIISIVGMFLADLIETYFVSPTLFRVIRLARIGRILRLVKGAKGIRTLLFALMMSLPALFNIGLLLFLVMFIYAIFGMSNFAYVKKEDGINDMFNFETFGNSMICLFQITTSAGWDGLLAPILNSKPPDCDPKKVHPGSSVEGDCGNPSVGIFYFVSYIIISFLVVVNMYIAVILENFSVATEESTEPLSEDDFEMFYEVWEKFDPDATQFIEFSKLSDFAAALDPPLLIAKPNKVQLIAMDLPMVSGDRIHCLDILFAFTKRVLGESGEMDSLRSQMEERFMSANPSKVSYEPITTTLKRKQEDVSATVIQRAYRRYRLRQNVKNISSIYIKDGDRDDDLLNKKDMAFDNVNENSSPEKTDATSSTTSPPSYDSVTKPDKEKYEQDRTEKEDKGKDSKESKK

Regarding `CCOC(=O)c1cccc(CC)c1NC(=O)C[P+]1(Cc2ccccc2)CCCCC1` [Compound 19], in data set [1], the Papp at 4 h, 50 uM was under 0.1 ×10⁻⁶ cm/s. Besides, in data set [2], the inhibition at 3 µM was 70 to 90%. Moreover, in data set [3], the inhibition at 10 µM was in the range of 40 to 70%.

In data set [1], `Cc1cccc(C)c1NC(=O)C[P+](c1ccccc1)(c1ccccc1)c1ccccc1.O=C[O-]` [Compound 8, (2-((2,6-dimethylphenyl)amino)-2-oxoethyl) triphenylphosphonium formate] had a Papp at 4 h, 50 uM of under 0.1 ×10⁻⁶ cm/s. Also, the inhibition at 10 µM in data set [2] is over 95%. In data set [3], this compound gave an inhibition at 3 µM of 40 to 70%.

Consider `CCC(C(=O)Nc1c(C)cccc1C)[P+](CC)(CC)CC` (centres unmarked) [Compound 2, (1-((2,6-dimethylphenyl)amino)-1-oxobutan-2-yl) triethylphosphonium carbonate], for which the Papp at 4 h, 50 uM in data set [1] is over 10 ×10⁻⁶ cm/s. This compound also returned an inhibition at 10 µM in data set [2] of 40 to 70%.

On to `CCC(C(=O)Nc1c(C)cccc1C)[P+](c1ccccc1)(c1ccccc1)c1ccccc1` (centres unmarked) [Compound 9, (1-((2,6-dimethylphenyl)amino)-1-oxobutan-2-yl) triphenylphosphonium formate], for which the Papp at 4 h, 50 uM in data set [1] was 2 to 10 ×10⁻⁶ cm/s. Further, in data set [2], the inhibition at 10 µM was over 95%.

Take `CCC(C(=O)Nc1c(C)cccc1C(=O)OC)[P+]1(Cc2ccccc2)CCCCC1` (centres unmarked) [Compound 11]: the Papp at 4 h, 50 uM in data set [1] is under 0.1 ×10⁻⁶ cm/s. In data set [2], this compound gave an inhibition at 3 µM of 70 to 90%.

On to `CCOC(=O)c1cccc(OCC)c1NC(=O)C[P+]1(Cc2ccccc2)CCCCC1` [Compound 20], for which, in data set [1], the Papp at 4 h, 50 uM was under 0.1 ×10⁻⁶ cm/s. In addition, the results for the inhibition at 3 µM in data set [2] and in data set [3] were over 90% and under 40%, respectively.

The compound `CC[P+](CC)(CC(=O)Nc1c(C)cccc1C)CC(=O)Nc1c(C)cccc1C` [Compound 6, bis (2-((2,6-dimethylphenyl)amino)-2-oxoethyl) diethyl phosphonium acetate] showed a Papp at 4 h, 50 uM in data set [1] of under 0.1 ×10⁻⁶ cm/s. In data set [2], this compound displayed an inhibition at 10 µM of 70 to 95%.

As to `CCC(C(=O)Nc1c(C)cccc1C)[P+]1(Cc2ccccc2)CCCCC1` (centres unmarked) [Compound 10, 1-benzyl-1-(1-((2,6-dimethylphenyl)amino)-1-oxobutan-2-yl)phosphinan-1-ium formate], the Papp at 4 h, 50 uM in data set [1] is under 0.1 ×10⁻⁶ cm/s. In data set [2], this compound yielded an inhibition at 10 µM of over 95%. The same compound yielded an inhibition at 3 µM in data set [3] of 40 to 70%.

`CCOC(=O)c1cccc(F)c1NC(=O)C[P+]1(Cc2ccccc2)CCCCC1` [Compound 15] registered a Papp at 4 h, 50 uM in data set [1] of under 0.1 ×10⁻⁶ cm/s. Also, the inhibition at 3 µM is 70 to 90% in data set [2] and under 40% in data set [3].

On to `CC[P+](CC)(CC)CC(=O)Nc1c(C)cccc1C(=O)OC.[Br-]` [Compound 21], for which the Papp at 4 h, 50 uM in data set [1] is under 0.1 ×10⁻⁶ cm/s. The inhibition at 3 µM in data set [2] was under 40%.

`Cc1cccc(C(=O)OC(C)(C)C)c1NC(=O)C[P+]1(Cc2ccccc2)CCCCC1` [Compound 14]: in data set [1], the Papp at 4 h, 50 uM was under 0.1 ×10⁻⁶ cm/s. The compound also displayed an inhibition at 3 µM in data set [2] of 40 to 70%.

With `Cc1cccc(C)c1NC(=O)C[P+]1(Cc2ccccc2)CCCCCC1` [Compound 3, 1-benzyl-1-(2-((2,6-dimethylphenyl)amino)-2-oxoethyl) phosphepan-1-ium bromide], the Papp at 4 h, 50 uM in data set [1] is under 0.1 ×10⁻⁶ cm/s. Also, the inhibition at 10 µM in data set [2] was over 95%; in data set [3] it was 40 to 70%.

Turning to `Cc1cccc(C)c1NC(=O)C[P+]1(Cc2ccccc2)CCCC1` [Compound 5, 1-benzyl-1-(2-((2,6-dimethylphenyl)amino)-2-oxoethyl) phospholan-1-ium bromide], the Papp at 4 h, 50 uM in data set [1] lay in the range of 0.1 to 2 ×10⁻⁶ cm/s. In addition, the inhibition at 10 µM in data set [2] is 70 to 95%; in data set [3] it was under 40%.

With `CCCC[P+](CCCC)(CCCC)CC(=O)Nc1c(C)cccc1C(=O)OC.[Br-]` [Compound 22], the Papp at 4 h, 50 uM in data set [1] is under 0.1 ×10⁻⁶ cm/s. In data set [2], the inhibition at 3 µM fell in the range of 70 to 90%.

On to `COC(=O)c1cccc(C)c1NC(=O)C[P+](c1ccccc1)(c1ccccc1)c1ccccc1` [Compound 23], for which, in data set [1], the Papp at 4 h, 50 uM was under 0.1 ×10⁻⁶ cm/s. Also, the inhibition at 3 µM in data set [2] was under 40%.

As for `Cc1cccc(C)c1NC(=O)C[P+]1(Cc2ccccc2)CCCCC1.[Br-]` [Compound 4, 1-benzyl-1-(2-((2,6-dimethylphenyl)amino)-2-oxoethyl) phosphinan-1-ium bromide], the Papp at 4 h, 50 uM in data set [1] lay in the range of 0.1 to 2 ×10⁻⁶ cm/s. For the same compound, the inhibition at 10 µM in data set [2] was over 95%; in data set [3], 40 to 70%.

Compound `CCOC(=O)c1cccc(Cl)c1NC(=O)C[P+]1(Cc2ccccc2)CCCCC1` [Compound 17] registered a Papp at 4 h, 50 uM in data set [1] of over 10 ×10⁻⁶ cm/s. For the same compound, the inhibition at 3 µM is over 90% in data set [2] and 40 to 70% in data set [3].

As for `CCOC(=O)c1cccc(C)c1NC(=O)C[P+]1(Cc2ccccc2)CCCCC1` [Compound 13], the Papp at 4 h, 50 uM in data set [1] was under 0.1 ×10⁻⁶ cm/s. The inhibition at 3 µM in data set [2] was over 90%; in data set [3], 40 to 70%.

For `CC[P+](CC)(CC)CC(=O)Nc1c(C)cccc1C` [Compound 1, (2-((2,6-dimethylphenyl)amino)-2-oxoethyl) triethylphosphonium bromide], the Papp at 4 h, 50 uM in data set [1] was under 0.1 ×10⁻⁶ cm/s. For the same compound, the inhibition at 10 µM in data set [2] was 70 to 95%. Moreover, in data set [3] (1,000 μM test concentration), the inhibition at 1000 µM is under 40%.

Take `CCCC[P+](CCCC)(CCCC)CC(=O)Nc1c(C)cccc1C.[Br-]` [Compound 7, tri-n-butyl (2-((2,6-dimethylphenyl)amino)-2-oxoethyl) phosphonium bromide]: the Papp at 4 h, 50 uM in data set [1] fell in the range of 2 to 10 ×10⁻⁶ cm/s. In data set [2], the inhibition at 10 µM was over 95%.

In the case of `CCC(C(=O)Nc1c(C#N)cccc1C(=O)OC)[P+]1(Cc2ccccc2)CCCCC1` (centres unmarked) [Compound 12], in data set [2], the inhibition at 3 µM was 70 to 90%.

Consider `COC(=O)c1cccc(C)c1NC(=O)C[P+]1(Cc2ccccc2)CCCCC1` [Compound 16], for which the inhibition at 3 µM in data set [2] lay in the range of 70 to 90%.
